# Test results published in article PMC8025741 (Journal of medicinal chemistry, 2020).
# “Also recorded” adds a separate entry of the source. Where a name gives a salt, the structure may show the parent alone. Read-outs that look alike come from different tables or passages of the source.
# Assays:
# [1] = in vitro metabolic stability, human liver microsomes; conditions: pH 7.4
# [2] = stability studies and metabolite identification in mice and human microsomes; conditions: for metabolic stability (in words): mice and human microsomes
# [3] = tested on: 5XFAD mice; assay: fear conditioning test in 5XFAD mice; format: in vivo, mouse; conditions: 5XFAD mice at 8 months, 10 mg/kg ip daily for 5 months, listed as 1 (PDDC)
# [4] = cited from earlier work
# [5] = cited from earlier work; remark: listed apart in the source
metabolic stability (in words) [2],SMILES,also measured
reasonable metabolic stability,"CC(=O)N[C@@H]1CCN(c2cc(C)nn3c(-c4ccc(OC(F)(F)F)cc4)c(C)nc23)C1 [Compound 47, (R)-N-(1-(2,6-Dimethyl-3-(4-(trifluoromethoxy)-phenyl)imidazo[1,2-b]pyridazin-8-yl)pyrrolidin-3-yl)acetamide]",
generally stable,"COc1ccc(-c2c(C)nc3c(N4CC[C@@H](NC(=O)C(F)(F)F)C4)cc(C)nn23)cc1OC [Compound 52, (R)-N-(1-(3-(3,4-Dimethoxyphenyl)-2,6-dimethylimidazo[1,2-b]pyridazin-8-yl)pyrrolidin-3-yl)-2,2,2-trifluoroacetamide]",
generally stable,"CCCCCC(=O)N[C@@H]1CCN(c2cc(C)nn3c(-c4ccc(OC)c(OC)c4)c(C)nc23)C1 [Compound 53, (R)-N-(1-(3-(3,4-Dimethoxyphenyl)-2,6-dimethylimidazo[1,2-b]pyridazin-8-yl)pyrrolidin-3-yl)hexanamide Hydrochloride]",
generally stable,"COc1ccc(-c2c(C)nc3c(N4CC[C@@H](NC(=O)Nc5ccccc5)C4)cc(C)nn23)cc1OC [Compound 59, (R)-1-(1-(3-(3,4-Dimethoxyphenyl)-2,6-dimethylimidazo[1,2-b]pyridazin-8-yl)pyrrolidin-3-yl)-3-phenylurea]",
metabolically unstable,"COc1ccc(-c2c(C)nc3c(N4CCCC4)cc(C)nn23)cc1OC [Compound 76c, 3-(3,4-Dimethoxyphenyl)-2,6-dimethyl-8-(pyrrolidin-1-yl)imidazo[1,2-b]pyridazine]",
,COc1cc(-c2nc(-c3cccs3)c(-c3ccccc3)[nH]2)cc(OC)c1O [DPTIP],oral bioavailability (in words) [4]: not orally bioavailable; brain penetration (in words) ([4]; vs PDDC): poor brain penetration
,O=c1[nH]c(=S)[nH]c(-c2ccccc2)c1Cc1c(O)ccc2ccccc12 [cambinol],metabolic stability (in words) [5]: poor metabolic stability

SMILES,metabolic stability (in words) [2],also measured
"COc1ccc(-c2c(C)nc3c(N4CC[C@@H](NC(=O)Oc5ccccc5)C4)cc(C)nn23)cc1OC [Compound 1, Phenyl(R)-(1-(3-(3,4-Dimethoxyphenyl)-2,6-dimethylimidazo[1,2-b]pyridazin-8-yl)pyrrolidin-3-yl)carbamate]",generally stable,"remaining at 1 h, 1 µM [1]: 103 ± 14%; metabolite identification (MET-ID) ([2]; human and mouse liver microsomes, Figure S1): O-demethylated metabolite; contextual fear memory (freezing, day 2) [3]: performed like WT controls"
"COc1ccc(-c2c(C)nc3c(N4CC[C@@H](NS(=O)(=O)C5CC5)C4)cc(C)nn23)cc1OC [Compound 66, (R)-N-(1-(3-(3,4-Dimethoxyphenyl)-2,6-dimethylimidazo[1,2-b]pyridazin-8-yl)pyrrolidin-3-yl)cyclopropanesulfonamide]",generally stable; also recorded: completely stable,
"COc1ccc(-c2c(C)nc3c(N4CC[C@@H](NS(=O)(=O)c5cccs5)C4)cc(C)nn23)cc1OC [Compound 73, (R)-N-(1-(3-(3,4-Dimethoxyphenyl)-2,6-dimethylimidazo[1,2-b]pyridazin-8-yl)pyrrolidin-3-yl)thiophene-2-sulfonamide]",generally stable; also recorded: completely stable,
